{"source": "patent US20260356860A1", "about": "“2-SUBSTITUTED 3,4A,5,7,8,8A-HEXAHYDRO-4H-THIOPYRANO[4,3-DJPYRIMIDIN-4-ONES FOR WOUND TREATMENT” (priority 2022, published 2026)", "experiment_in_all_cases": "Bacteriostasis, log reduction", "type_in_all_cases": "cell-based", "key": {"[1]": {"test_system": "E. faecalis (derived from ATCC ® 19433 ™)", "conditions": "E. faecalis ATCC 19433", "protocol": "(§1) In order to assess the log reduction capabilities of compounds of Formula (1), testing was performed on organisms that are found in acute and chronic wounds. Triplicate tubes were prepared for each bacteria using 50 μL of inoculum (about 1×10^6 CFU/mL) which was added to 450 μL of compound solution (compound of Formula (I)) (or 100 μL of inoculum in 900 μL of compound solution), resulting in a final inoculum of about 1×10^5 CFU/mL, as shown in Table 4.\n(§2) Tubes were mixed with a vortex and then incubated in a shaking incubator at 175 RPM and 35° C. to 37° C.\n(§3) Positive control in Tables 5a and 5b was 1 mL of 0.89% saline with 1 mL of the 1×10^6 CFU/mL of the organism.\n(§4) For Compounds 1, 7, 8, 10, and 18 in Tables 6, 7-A, 7-B, 8, 9, 10-A, 10-B, and 11: The compound solutions were prepared with compound (30 mg), polysorbate 20 (1.6 mL), butylene glycol (1.6 mL), phosphatidyl choline (0.66 g), ethanol (1.6 mL), hydroxypropyl cellulose (0.26 g), and ultra pure water (24.9 mL).\n(§5) XAV939 Control in Table X1 was XAV939 (30 mg), polysorbate 20 (1.6 mL), butylene glycol (1.6 mL), phosphatidyl choline (0.66 g), ethanol (1.6 mL), ultra pure water (24.9 mL), and hydroxypropyl cellulose (0.26 g).\n(§6) GO-HA Control in Table X2 was GO-HA (30 mg), polysorbate 20 (1.6 mL), butylene glycol (1.6 mL), phosphatidyl choline (0.66 g), ethanol (1.6 mL), ultra pure water (24.9 mL), and hydroxypropyl cellulose (0.26 g).\n(§7) For Compound 18+GO-HA in Tables 6 and X4: compound 18 (45 mg), GO-HA (45 mg), polysorbate 20 (2 mL), butylene glycol (2 mL), phosphotidyl choline (0.5 g), ethanol (2 mL), hydroxypropyl cellulose (0.40 g), and ultra pure water (40 mL).\n(§8) For XAV939+GO-HA in Tables 6 and X3-A, and X3-B: XAV939 (45 mg), GO-HA (45 mg), butylene glycol (2 mL), polysorbate 20 (2 mL), phosphotidyl choline (0.5 g), ethanol (2 mL), hydroxypropyl cellulose (0.40 g), and ultra pure water (40 mL).\n(§9) Testing was performed at two time points: 18 to 24 hours, and […]."}, "[2]": {"test_system": "P. aeruginosa (derived from ATCC ® 9027 ™)", "conditions": "P. aeruginosa ATCC 9027", "protocol": "as §1, §2, §3, §4, §5, §6, §7, §8, §9"}, "[3]": {"test_system": "P. vulgaris (derived from ATCC ® 8427 ™)", "conditions": "P. vulgaris ATCC 8427", "protocol": "as §1, §2, §3, §4, §5, §6, §7, §8, §9"}, "[4]": {"test_system": "E. coli 0157:H7 (derived from ATCC ® 12900 ™)", "conditions": "E. coli 0157:H7 ATCC 12900", "protocol": "as §1, §2, §3, §4, §5, §6, §7, §8, §9"}, "[5]": {"test_system": "E. coli (derived from ATCC ® 8739 ™)", "conditions": "E. coli ATCC 8739", "protocol": "as §1, §2, §3, §4, §5, §6, §7, §8, §9"}, "[6]": {"test_system": "A. baumannii (derived from ATCC ® 19606 ™)", "conditions": "A. baumannii ATCC 19606", "protocol": "as §1, §2, §3, §4, §5, §6, §7, §8, §9"}, "[7]": {"test_system": "E. coli (derived from ATCC ® 25922 ™)", "conditions": "E. coli ATCC 25922", "protocol": "as §1, §2, §3, §4, §5, §6, §7, §8, §9"}, "[8]": {"test_system": "S. aureus (derived from ATCC ® 6538 ™)", "conditions": "S. aureus ATCC 6538", "protocol": "as §1, §2, §3, §4, §5, §6, §7, §8, §9"}, "[9]": {"test_system": "S. epidermidis (derived from ATCC ® 14990 ™)", "conditions": "S. epidermidis ATCC 14990", "protocol": "as §1, §2, §3, §4, §5, §6, §7, §8, §9"}, "[10]": {"test_system": "P. aeruginosa (derived from ATCC ® 15442 ™)", "conditions": "P. aeruginosa ATCC 15442", "protocol": "as §1, §2, §3, §4, §5, §6, §7, §8, §9"}, "[11]": {"test_system": "S. maltophilia (derived from ATCC ® 13637 ™)", "conditions": "S. maltophilia ATCC 13637", "protocol": "as §1, §2, §3, §4, §5, §6, §7, §8, §9"}, "[12]": {"test_system": "S. pyogenes (derived from ATCC ® 19615 ™)", "conditions": "S. pyogenes ATCC 19615", "protocol": "as §1, §2, §3, §4, §5, §6, §7, §8, §9"}}}
{"smiles": "O=c1[nH]c(-c2ccc(B(O)O)cc2)nc2c1CSCC2", "note": "[Compound 1, (4-(4-oxo-3,5,7,8-tetrahydro-4H-thiopyrano[4,3-d]pyrimidin-2-yl)phenyl)boronic acid]", "values": [{"measurement": "Average result", "setting": "[1]; 24 h", "result": "1.1 × 10^3"}, {"measurement": "Log Reduction", "setting": "[1]; 24 h", "result": 1.8}, {"measurement": "Log Value", "setting": "[1]; 24 h", "result": 3.0}, {"measurement": "Average result", "setting": "[1]; 72 h", "result": "1.1 × 10^4"}, {"measurement": "Log Reduction", "setting": "[1]; 72 h", "result": 0.7}, {"measurement": "Log Value", "setting": "[1]; 72 h", "result": 4.1}, {"measurement": "Average result", "setting": "[2]; 24 h", "result": "<200"}, {"measurement": "Log Reduction", "setting": "[2]; 24 h", "result": ">3.0"}, {"measurement": "Log Value", "setting": "[2]; 24 h", "result": "<2.3"}, {"measurement": "Average result", "setting": "[2]; 72 h", "result": "<200"}, {"measurement": "Log Reduction", "setting": "[2]; 72 h", "result": ">3.0"}, {"measurement": "Log Value", "setting": "[2]; 72 h", "result": "<2.3"}, {"measurement": "Average result", "setting": "[3]; 24 h", "result": "<200"}, {"measurement": "Log Reduction", "setting": "[3]; 24 h", "result": ">3.6"}, {"measurement": "Log Value", "setting": "[3]; 24 h", "result": "<2.3"}, {"measurement": "Average result", "setting": "[3]; 72 h", "result": "<200"}, {"measurement": "Log Reduction", "setting": "[3]; 72 h", "result": ">3.6"}, {"measurement": "Log Value", "setting": "[3]; 72 h", "result": "<2.3"}, {"measurement": "Average result", "setting": "[4]; 24 h", "result": "5.5 × 10^3"}, {"measurement": "Log Reduction", "setting": "[4]; 24 h", "result": 0.5}, {"measurement": "Log Value", "setting": "[4]; 24 h", "result": 3.7}, {"measurement": "Average result", "setting": "[4]; 72 h", "result": "<200"}, {"measurement": "Log Reduction", "setting": "[4]; 72 h", "result": ">1.9"}, {"measurement": "Log Value", "setting": "[4]; 72 h", "result": "<2.3"}, {"measurement": "Average result", "setting": "[5]; 24 h", "result": "1.3 × 10^4"}, {"measurement": "Log Reduction", "setting": "[5]; 24 h", "result": 1.2}, {"measurement": "Log Value", "setting": "[5]; 24 h", "result": 4.1}, {"measurement": "Average result", "setting": "[5]; 72 h", "result": "<200"}, {"measurement": "Log Reduction", "setting": "[5]; 72 h", "result": ">3.0"}, {"measurement": "Log Value", "setting": "[5]; 72 h", "result": "<2.3"}, {"measurement": "Average result", "setting": "[6]; 24 h", "result": "<200"}, {"measurement": "Log Reduction", "setting": "[6]; 24 h", "result": ">3.0"}, {"measurement": "Log Value", "setting": "[6]; 24 h", "result": "<2.3"}, {"measurement": "Average result", "setting": "[6]; 72 h", "result": "<200"}, {"measurement": "Log Reduction", "setting": "[6]; 72 h", "result": ">3.0"}, {"measurement": "Log Value", "setting": "[6]; 72 h", "result": "<2.3"}, {"measurement": "Average result", "setting": "[7]; 24 h", "result": "<200"}, {"measurement": "Log Reduction", "setting": "[7]; 24 h", "result": ">3.1"}, {"measurement": "Log Value", "setting": "[7]; 24 h", "result": "<2.3"}, {"measurement": "Average result", "setting": "[7]; 72 h", "result": "<200"}, {"measurement": "Log Reduction", "setting": "[7]; 72 h", "result": ">3.1"}, {"measurement": "Log Value", "setting": "[7]; 72 h", "result": "<2.3"}, {"measurement": "Average result", "setting": "[8]; 24 h", "result": "8.7 × 10^4"}, {"measurement": "Log Reduction", "setting": "[8]; 24 h", "result": 0.4}, {"measurement": "Log Value", "setting": "[8]; 24 h", "result": 4.9}, {"measurement": "Average result", "setting": "[8]; 72 h", "result": "<800"}, {"measurement": "Log Reduction", "setting": "[8]; 72 h", "result": ">2.4"}, {"measurement": "Log Value", "setting": "[8]; 72 h", "result": "<2.9"}, {"measurement": "Average result", "setting": "[9]; 24 h", "result": "3.1 × 10^5"}, {"measurement": "Log Reduction", "setting": "[9]; 24 h", "result": "No"}, {"measurement": "Log Value", "setting": "[9]; 24 h", "result": 5.5}, {"measurement": "Average result", "setting": "[9]; 72 h", "result": "<200"}, {"measurement": "Log Reduction", "setting": "[9]; 72 h", "result": ">2.5"}, {"measurement": "Log Value", "setting": "[9]; 72 h", "result": "<2.3"}, {"measurement": "Average result", "setting": "[10]; 24 h", "result": "<200"}, {"measurement": "Log Reduction", "setting": "[10]; 24 h", "result": ">3.1"}, {"measurement": "Log Value", "setting": "[10]; 24 h", "result": "<2.3"}, {"measurement": "Average result", "setting": "[10]; 72 h", "result": "<200"}, {"measurement": "Log Reduction", "setting": "[10]; 72 h", "result": ">3.1"}, {"measurement": "Log Value", "setting": "[10]; 72 h", "result": "<2.3"}, {"measurement": "Average result", "setting": "[11]; 24 h", "result": "<200"}, {"measurement": "Log Reduction", "setting": "[11]; 24 h", "result": ">2.8"}, {"measurement": "Log Value", "setting": "[11]; 24 h", "result": "<2.3"}, {"measurement": "Average result", "setting": "[11]; 72 h", "result": "<200"}, {"measurement": "Log Reduction", "setting": "[11]; 72 h", "result": ">2.8"}, {"measurement": "Log Value", "setting": "[11]; 72 h", "result": "<2.3"}, {"measurement": "Average result", "setting": "[12]; 24 h", "result": "<200"}, {"measurement": "Log Reduction", "setting": "[12]; 24 h", "result": ">3.2"}, {"measurement": "Log Value", "setting": "[12]; 24 h", "result": "<2.3"}, {"measurement": "Average result", "setting": "[12]; 72 h", "result": "<200"}, {"measurement": "Log Reduction", "setting": "[12]; 72 h", "result": ">3.2"}, {"measurement": "Log Value", "setting": "[12]; 72 h", "result": "<2.3"}]}
